Consider 7 compounds from patent US20220047569A1, “METHOD AND COMPOUND FOR USE, IN TREATING AND/OR PREVENTING NETOSIS” (Jubilant EpiPad LLC, priority 2020, published 2022).

Where only a bound is given, the exact number is not on record here.

This assay has as its system Histone H3 Citrullination in Neutrophils. As to the kind of experiment: Citrullination ELISA (Citrullinated Histone H3) in calcium ionophore stimulated neutrophils. It counts as cell-based. Conditions: Neutrophil; human neutrophils, 25 μM calcium ionophore, CitH3 ELISA. Put shortly: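 Freshly isolated human donor neutrophils in RPMI with 2% BSA and 1 mM CaCl2 were pre-incubated 30 min with compound (10, 1, 0.1 μM), then stimulated 30 min with 25 μM calcium ionophore. After S7 nuclease digestion, lysates were assayed by citrullinated histone H3 ELISA (450 nm); IC50 from sigmoidal fits.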
A general note: An ELISA detects its analyte on a solid surface through an enzyme-linked reagent.

The IC50 is the concentration needed to halve the response being measured. Take `COc1ccc2cc(-c3nc4cc(C(=O)N5CCC[C@@H](N)C5)cc5c4n3CCN5C)n(CC3CC3)c2c1` [Compound 160, (R)-(3-aminopiperidin-1-yl)(2-(1-(cyclopropylmethyl)-6-methoxy-1H-indol-2-yl)-6-methyl-5,6-dihydro-4H-imidazo[1,5,4-de]quinoxalin-8-yl)methanone]: the IC50 is < 0.1 µM.
For `CN1CCn2c(-c3cc4cc(F)ccc4n3CC3CC3)nc3cc(C(=O)N4CCC[C@@H](N)C4)cc1c32` [Compound 161, (R)-(3-aminopiperidin-1-yl)(2-(1-(cyclopropylmethyl)-5-fluoro-1H-indol-2-yl)-6-methyl-5,6-dihydro-4H-imidazo[1,5,4-de]quinoxalin-8-yl)methanone] the value was < 0.1 µM; for `N[C@@H]1CCCN(C(=O)c2cc3c4c(c2)nc(-c2cc5cc(F)c(F)cc5n2CC2CC2)n4CCN3)C1` [Compound 163, (R)-(3-aminopiperidin-1-yl)(2-(1-(cyclopropylmethyl)-5,6-difluoro-1H-indol-2-yl)-5,6-dihydro-4H-imidazo[1,5,4-de]quinoxalin-8-yl)methanone], < 0.1 µM; for `N[C@@H]1CCCN(C(=O)c2cc3c4c(c2)nc(-c2cc5c(F)cccc5n2CC2CC2)n4CCN3)C1` [Compound 166, (R)-(3-aminopiperidin-1-yl)(2-(1-(cyclopropylmethyl)-4-fluoro-1H-indol-2-yl)-5,6-dihydro-4H-imidazo[1,5,4-de]quinoxalin-8-yl)methanone], 0.1 to 1 µM.
The same measure for `Cc1cccc2cc(-c3nc4cc(C(=O)N5CCC[C@@H](N)C5)cc5c4n3CCN5)n(CC3CC3)c12` [Compound 170, (R)-(3-aminopiperidin-1-yl)(2-(1-(cyclopropylmethyl)-7-methyl-1H-indol-2-yl)-5,6-dihydro-4H-imidazo[1,5,4-de]quinoxalin-8-yl)methanone]: 0.1 to 1 µM; for `CC(=O)N1CCn2c(-c3cc4ccccc4n3CC3CC3)nc3cc(C(=O)N4CCC[C@@H](N)C4)cc1c32` [Compound 171, (R)-1-(8-(3-aminopiperidine-1-carbonyl)-2-(1-(cyclopropylmethyl)-1H-indol-2-yl)-4,5-dihydro-6H-imidazo[1,5,4-de]quinoxalin-6-yl)ethan-1-one]: < 0.1 µM.
Consider `N[C@@H]1CCCN(C(=S)c2cc3c4c(c2)nc(-c2cc5ccccc5n2CC2CC2)n4CCN3)C1` [Compound 172, (R)-(3-aminopiperidin-1-yl)(2-(1-(cyclopropylmethyl)-1H-indol-2-yl)-5,6-dihydro-4H-imidazo[1,5,4-de]quinoxalin-8-yl)methanethione], for which the concentration for half-maximal inhibition (IC50) is < 0.1 µM.
